Laboratory results reported in patent publication US6461997B1, “Triazole sulfones having herbicidal activity” (Monsanto Technology LLC, priority 1999, dated 2002).

How the values were obtained:
AMARE (redroot pigweed) = test: Pre-emergence herbicidal activity, warm season; assay type: in vivo, Amaranthus retroflexus; settings: GR80 = lowest tested rate (300, 100, 30, 10 g/ha) with 80% or greater inhibition; approx. 14 days after treating; 30/21° C.
Method in brief: (§1)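 Seeds sown in sterilised fertilised topsoil received surface-applied compound in 50:50 acetone/water, typically at 300, 100, 30 and 10 g/ha, then greenhouse-grown at 30/21° C (warm-season species) or 18/13° C (cool-season species). Percent inhibition versus untreated plants was scored at about 14 days, giving GR80; an asterisk marks activity short of 80% at the top rate.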

ECHCG (barnyardgrass) = test: Pre-emergence herbicidal activity, warm season; assay type: in vivo, Echinochloa crus-galli; settings: GR80 = lowest tested rate (300, 100, 30, 10 g/ha) with 80% or greater inhibition; approx. 14 days after treating; 30/21° C.
Method in brief: as §1

[1] = system: SORHA (johnsongrass (seedling)); test: Pre-emergence herbicidal activity, warm season; assay type: in vivo, Sorghum halepense; settings: GR80 = lowest tested rate (300, 100, 30, 10 g/ha) with 80% or greater inhibition; approx. 14 days after treating; 30/21° C.
Method in brief: as §1

PANDI (fall panicum) = test: Pre-emergence herbicidal activity, warm season; assay type: in vivo, Panicum dichotomiflorum; settings: GR80 = lowest tested rate (300, 100, 30, 10 g/ha) with 80% or greater inhibition; approx. 14 days after treating; 30/21° C.
Method in brief: as §1

[2] = system: BRAPP (broadleaf signalgrass); test: Pre-emergence herbicidal activity, warm season; assay type: in vivo, Brachiaria platyphylla; settings: GR80 = lowest tested rate (300, 100, 30, 10 g/ha) with 80% or greater inhibition; approx. 14 days after treating; 30/21° C.
Method in brief: as §1

[3] = system: AGSST (creeping bentgrass); test: Pre-emergence herbicidal activity, cool season; assay type: in vivo, Agrostis stolonifera; settings: GR80 = lowest tested rate (300, 100, 30, 10 g/ha) with 80% or greater inhibition; approx. 14 days after treating; 18/13° C.
Method in brief: as §1

SORVU (shattercane) = test: Pre-plant incorporated (PPI) herbicidal activity, warm season; assay type: in vivo, Sorghum vulgare; settings: PPI application
Method in brief: (§2)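 Greenhouse PPI test with treated cover soil over seeds; % inhibition vs untreated at about 14 days.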

[4] = system: LAMPU (purple deadnettle); test: Pre-plant incorporated (PPI) herbicidal activity, cool season; assay type: in vivo, Lamium purpureum; settings: weed, PPI application
Method in brief: as §2

ALOMY (blackgrass) = test: as above; assay type: in vivo, Alopecurus myosuroides; settings: weed, PPI application
Method in brief: as §2

SETVI (green foxtail) = test: as above; assay type: in vivo, Setaria viridis; settings: weed, PPI application
Method in brief: as §2

wheat (TRZAW) = test: Selectivity test, PPI, cool season crop; assay type: in vivo, Triticum aestivum; settings: PPI application
Method in brief: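 Pre-plant incorporated: compound in organic solvent sprayed onto cover soil, mixed and laid over seeds; untreated soil for controls. Greenhouse after treatment: warm season 30/21° C., cool season 18/13° C. day/night. Percent inhibition versus untreated plants scored about 14 days after planting.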

SMILES	Pre-emergence activity (GR80) AMARE (AMARE (redroot pigweed)) [g/ha]	Pre-emergence activity (GR80) ECHCG (ECHCG (barnyardgrass)) [g/ha]	Pre-emergence activity (GR80) SORHA [1] [g/ha]	Pre-emergence activity (GR80) PANDI (PANDI (fall panicum)) [g/ha]	Pre-emergence activity (GR80) BRAPP [2] [g/ha]	Pre-emergence activity (GR80) AGSST [3] [g/ha]	Percent inhibition SORVU (SORVU (shattercane); 30 g/ha) [%]	Percent inhibition SORVU (SORVU (shattercane); 100 g/ha) [%]	Percent inhibition SORVU (SORVU (shattercane); 300 g/ha) [%]	Percent inhibition SORVU (SORVU (shattercane); 900 g/ha) [%]	Percent inhibition LAMPU ([4]; 30 g/ha) [%]	Percent inhibition LAMPU ([4]; 300 g/ha) [%]	Percent inhibition LAMPU ([4]; 900 g/ha) [%]	Percent inhibition ALOMY (ALOMY (blackgrass); 30 g/ha) [%]	Percent inhibition ALOMY (ALOMY (blackgrass); 100 g/ha) [%]	Percent inhibition ALOMY (ALOMY (blackgrass); 300 g/ha) [%]	Percent inhibition ALOMY (ALOMY (blackgrass); 900 g/ha) [%]	Percent inhibition SETVI (SETVI (green foxtail); 30 g/ha) [%]	Percent inhibition SETVI (SETVI (green foxtail); 100 g/ha) [%]	Percent inhibition SETVI (SETVI (green foxtail); 300 g/ha) [%]	also measured
CCN(CC)C(=O)n1cnc(S(=O)(=O)C(F)(F)Cl)n1 [Example 3]	100	30	100	100	100	30	70	95	100	100	60	100	100	60	90	99	100	100	100	100	Percent inhibition LAMPU ([4]; 100 g/ha): 95%; Percent inhibition SETVI (SETVI (green foxtail); 900 g/ha): 100%; Percent inhibition TRZAW (wheat (TRZAW); 30 g/ha): 0%; Percent inhibition TRZAW (wheat (TRZAW); 100 g/ha): 0%; Percent inhibition TRZAW (wheat (TRZAW); 300 g/ha): 20%; Percent inhibition TRZAW (wheat (TRZAW); 900 g/ha): 40%
CCN(CC)C(=O)n1cnc(S(=O)(=O)C(F)(F)SCc2ccccc2)n1 [Example 10]	100	300	100	300	300	100	0	20	95	100	0	0	50	50	100	95	100	0	90	100	Percent inhibition SORVU (SORVU (shattercane); 10 g/ha): 0%; Percent inhibition LAMPU ([4]; 10 g/ha): 0%; Percent inhibition ALOMY (ALOMY (blackgrass); 10 g/ha): 0%; Percent inhibition SETVI (SETVI (green foxtail); 900 g/ha): 100%; Percent inhibition TRZAW (wheat (TRZAW); 10 g/ha): 0%; Percent inhibition TRZAW (wheat (TRZAW); 30 g/ha): 0%; Percent inhibition TRZAW (wheat (TRZAW); 100 g/ha): 0%; Percent inhibition TRZAW (wheat (TRZAW); 300 g/ha): 10%; Percent inhibition TRZAW (wheat (TRZAW); 900 g/ha): 20%
